According to ChEMBL document CHEMBL4622849, “Discovery of ethyl ketone-based HDACs 1, 2, and 3 selective inhibitors for HIV latency reactivation” (Bioorg Med Chem Lett, 2020):
pEC50, pIC50: −log10 of the molar value.

Key:
[1] = test system: Human immunodeficiency virus; experiment: microbe, parasite or virus in culture; assay type: functional, organism-based; conditions: Human immunodeficiency virus 1, 2C4
Description: Reactivation of HIV latency infected in human 2C4 cells in presence of 0.1 % NHS by luciferase reporter gene assay

[2] = test system: Human immunodeficiency virus; experiment: microbe, parasite or virus in culture; assay type: functional, organism-based; conditions: Human immunodeficiency virus 1, 2C4; remark: listed apart in the source
Histone deacetylase 2 = Histone deacetylase 2 (Homo sapiens, UniProt Q92769)
Description: Inhibition of HDAC2 (unknown origin)

[3] = biological target: T1, Protein deacetylase HDAC6 (Homo sapiens, UniProt Q9UBN7); assay type: ADME
T1 sequence (Q9UBN7 whole entry): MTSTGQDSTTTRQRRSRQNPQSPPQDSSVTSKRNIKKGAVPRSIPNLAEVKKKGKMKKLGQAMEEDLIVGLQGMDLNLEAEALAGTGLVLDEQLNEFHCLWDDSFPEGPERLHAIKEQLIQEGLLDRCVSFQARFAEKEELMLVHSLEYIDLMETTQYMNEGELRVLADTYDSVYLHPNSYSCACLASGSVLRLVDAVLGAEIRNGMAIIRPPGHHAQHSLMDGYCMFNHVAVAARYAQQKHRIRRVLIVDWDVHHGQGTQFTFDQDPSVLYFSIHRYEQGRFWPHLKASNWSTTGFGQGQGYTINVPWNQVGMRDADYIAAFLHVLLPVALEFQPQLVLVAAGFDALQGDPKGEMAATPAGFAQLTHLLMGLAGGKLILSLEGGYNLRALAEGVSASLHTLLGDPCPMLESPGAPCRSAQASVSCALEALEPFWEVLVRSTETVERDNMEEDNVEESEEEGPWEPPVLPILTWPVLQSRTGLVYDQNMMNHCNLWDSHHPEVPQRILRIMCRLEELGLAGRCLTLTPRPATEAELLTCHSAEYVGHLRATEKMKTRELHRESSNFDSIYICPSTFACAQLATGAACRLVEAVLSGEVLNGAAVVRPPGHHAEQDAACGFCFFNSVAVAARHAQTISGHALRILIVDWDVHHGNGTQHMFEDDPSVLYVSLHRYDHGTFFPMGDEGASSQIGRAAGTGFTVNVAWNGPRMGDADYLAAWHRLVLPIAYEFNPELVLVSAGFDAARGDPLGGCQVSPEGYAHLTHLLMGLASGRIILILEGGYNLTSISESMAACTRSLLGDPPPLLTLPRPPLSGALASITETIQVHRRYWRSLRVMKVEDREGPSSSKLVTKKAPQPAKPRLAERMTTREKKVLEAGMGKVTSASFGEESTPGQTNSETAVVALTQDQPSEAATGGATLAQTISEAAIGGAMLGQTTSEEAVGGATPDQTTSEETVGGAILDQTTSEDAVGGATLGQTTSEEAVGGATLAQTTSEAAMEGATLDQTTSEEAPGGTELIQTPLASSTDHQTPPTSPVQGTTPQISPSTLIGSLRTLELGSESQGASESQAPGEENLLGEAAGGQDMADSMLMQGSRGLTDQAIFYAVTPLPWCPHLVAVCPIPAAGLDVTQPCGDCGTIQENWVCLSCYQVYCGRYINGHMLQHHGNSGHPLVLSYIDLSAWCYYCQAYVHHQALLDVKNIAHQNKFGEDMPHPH
Description: Inhibition of HDAC6 (unknown origin)

Histone deacetylase 8 = biological target: T2, Histone deacetylase 8 (Homo sapiens, UniProt Q9BY41); assay type: ADME
T2 sequence (Q9BY41 whole entry): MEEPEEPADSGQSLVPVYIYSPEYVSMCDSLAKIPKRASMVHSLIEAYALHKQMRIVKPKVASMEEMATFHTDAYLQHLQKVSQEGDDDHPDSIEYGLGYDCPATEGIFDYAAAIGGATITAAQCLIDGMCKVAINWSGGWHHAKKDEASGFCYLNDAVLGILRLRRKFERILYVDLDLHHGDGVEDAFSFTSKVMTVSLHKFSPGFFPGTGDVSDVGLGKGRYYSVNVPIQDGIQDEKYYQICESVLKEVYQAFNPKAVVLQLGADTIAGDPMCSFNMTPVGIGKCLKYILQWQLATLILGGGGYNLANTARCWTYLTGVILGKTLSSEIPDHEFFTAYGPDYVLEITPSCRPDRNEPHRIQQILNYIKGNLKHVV
Description: Inhibition of HDAC8 (unknown origin)

Histone deacetylase 1 = Histone deacetylase 1 (Homo sapiens, UniProt Q13547)
Description: Inhibition of HDAC1 (unknown origin)

[4] = AUC in Wistar Han rat at 10 mg/kg, po; assay type: ADME, organism-based; conditions: in vivo
[5] = Cmax in Wistar Han rat at 10 mg/kg, po; assay type: ADME, organism-based; design: dose 10 mg/kg, route oral; conditions: in vivo
[6] = Half life in Wistar Han rat at 2 mg/kg, iv or 10 mg/kg, po; assay type: ADME, organism-based; conditions: in vivo
[7] = Clearance in Wistar Han rat at 2 mg/kg, iv or 10 mg/kg, po; assay type: ADME, organism-based; conditions: in vivo
[8] = Oral bioavailability in Wistar Han rat at 10 mg/kg; assay type: ADME, organism-based; conditions: in vivo
[9] = AUC in Beagle dog at 2 mg/kg, po; assay type: ADME, organism-based, Canis lupus familiaris; conditions: in vivo
[10] = Cmax in Beagle dog at 2 mg/kg, po; assay type: ADME, organism-based, Canis lupus familiaris; design: dose 2 mg/kg, route oral; conditions: in vivo
[11] = Half life in Beagle dog at 1 mg/kg, iv or 2 mg/kg, po; assay type: ADME, organism-based, Canis lupus familiaris; conditions: in vivo
[12] = Clearance in Beagle dog at 1 mg/kg, iv or 2 mg/kg, po; assay type: ADME, organism-based, Canis lupus familiaris; conditions: in vivo
[13] = Oral bioavailability in Beagle dog at 2 mg/kg; assay type: ADME, organism-based, Canis lupus familiaris; conditions: in vivo

Chain of Histone deacetylase 1 (Q13547 whole entry): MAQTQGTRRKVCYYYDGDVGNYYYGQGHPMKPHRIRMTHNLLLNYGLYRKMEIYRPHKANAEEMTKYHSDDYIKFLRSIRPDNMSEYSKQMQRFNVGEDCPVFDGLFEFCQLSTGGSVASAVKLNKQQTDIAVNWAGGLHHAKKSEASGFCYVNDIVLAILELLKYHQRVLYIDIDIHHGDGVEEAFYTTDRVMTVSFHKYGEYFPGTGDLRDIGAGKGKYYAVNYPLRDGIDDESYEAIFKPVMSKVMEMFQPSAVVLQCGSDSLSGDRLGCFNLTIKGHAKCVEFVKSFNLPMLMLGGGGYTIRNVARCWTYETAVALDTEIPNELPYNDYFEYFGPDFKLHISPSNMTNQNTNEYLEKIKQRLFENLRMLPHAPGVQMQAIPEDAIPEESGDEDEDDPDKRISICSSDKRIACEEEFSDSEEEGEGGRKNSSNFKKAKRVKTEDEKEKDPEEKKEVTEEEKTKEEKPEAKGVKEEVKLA
Chain of Histone deacetylase 2 (Q92769 whole entry): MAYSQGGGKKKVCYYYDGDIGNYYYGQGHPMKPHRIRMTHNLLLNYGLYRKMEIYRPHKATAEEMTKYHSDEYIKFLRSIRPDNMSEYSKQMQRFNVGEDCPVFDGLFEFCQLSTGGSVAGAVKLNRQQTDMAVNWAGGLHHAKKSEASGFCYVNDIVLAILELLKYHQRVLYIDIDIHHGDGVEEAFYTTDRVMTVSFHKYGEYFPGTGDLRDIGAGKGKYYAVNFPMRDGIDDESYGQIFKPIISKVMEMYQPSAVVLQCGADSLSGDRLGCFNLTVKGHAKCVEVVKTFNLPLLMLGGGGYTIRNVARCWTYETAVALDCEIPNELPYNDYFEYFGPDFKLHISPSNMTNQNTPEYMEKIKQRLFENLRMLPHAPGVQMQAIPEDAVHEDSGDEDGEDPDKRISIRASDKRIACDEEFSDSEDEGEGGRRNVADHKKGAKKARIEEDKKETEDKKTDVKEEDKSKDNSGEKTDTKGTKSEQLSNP

| Compound | pEC50 [1] | pEC50 [2] | also measured |
| --- | --- | --- | --- |
| CCC(=O)CCCCC[C@H](NC(=O)[C@H]1CC12CCN(CC)CC2)c1nnc(-c2cc3ccccc3nc2OC)[nH]1 | 5.91 | 5.73 | pIC50 [3]: 7.02; pIC50 (Histone deacetylase 8): 5.52 |
| CCC(=O)CCCCC[C@H](NC(=O)[C@H]1CC12CCN(C(C)=O)CC2)c1ncc(-c2cc3ccccc3nc2OC)[nH]1 | 5.81 | 5.01 | pIC50 [3]: 5.93; pIC50 (Histone deacetylase 8): 5.64 |
| CCC(=O)CCCCC[C@H](NC(=O)[C@H]1CC12CN(C)C2)c1ncc(-c2cc3ccccc3nc2OC)[nH]1 | 6.81 | 6.20 | pIC50 [3]: 6.52; pIC50 (Histone deacetylase 8): 5.69 |
| CCC(=O)CCCCC[C@H](NC(=O)[C@@H]1CC12CCCN(C)C2)c1ncc(-c2cc3ccccc3nc2OC)[nH]1 (some centres undefined) | 6.59 | 6.00 |  |
| CCC(=O)CCCCC[C@H](NC(=O)[C@@H]1CC12CCN(C)CC2)c1ncc(-c2cc3ccccc3nc2OC)[nH]1 | 6.47 | 5.86 |  |
| CCC(=O)CCCCC[C@H](NC(=O)[C@@H]1C[C@@]12CCN(C)C2)c1ncc(-c2cc3ccccc3nc2OC)[nH]1 | 6.51 | 5.94 |  |
| CCC(=O)CCCCC[C@H](NC(=O)[C@H]1CC12CCN(C)CC2)c1nnc(-c2cc3ccccc3nc2OC)[nH]1 | 5.79 | 5.59 | pIC50 [3]: 7.04; pIC50 (Histone deacetylase 8): 5.71 |
| CCC(=O)CCCCC[C@H](NC(=O)[C@H]1CC12CCN(C)CC2)c1nnc(-c2cc3ccccc3nc2OC)o1 | 6.16 | 6.16 | pIC50 (Histone deacetylase 8): 4.35 |
| CCC(=O)CCCCC[C@H](NC(=O)[C@@H]1C[C@]12CCN(C)C2)c1ncc(-c2cc3ccccc3nc2OC)[nH]1 | 6.58 | 5.94 | pIC50 [3]: 6.83 |
| CCC(=O)CCCCC[C@H](NC(=O)[C@@H]1CC12CCOCC2)c1ncc(-c2cc3ccccc3nc2OC)[nH]1 | 6.19 | 5.30 |  |
| CCC(=O)CCCCC[C@H](NC(=O)[C@@H]1CC12CCC(N(C)C)CC2)c1ncc(-c2cc3ccccc3nc2OC)[nH]1 (some centres undefined) | 6.36 | 5.94 | pIC50 [3]: 6.12; pIC50 (Histone deacetylase 8): 5.25 |
| CCC(=O)CCCCC[C@H](NC(=O)[C@@H]1CCC12CCN(CC)CC2)c1ncc(-c2cc3ccccc3nc2OC)[nH]1 | 6.79 | 6.14 | pIC50 [3]: 6.29; pIC50 (Histone deacetylase 8): 5.63 |
| CCC(=O)CCCCC[C@H](NC(=O)[C@H]1CC12CCN(C)CC2)c1ncc(-c2cc3ccccc3nc2OC)o1 | 6.71 | 6.51 | pIC50 (Histone deacetylase 1): 8.82; pIC50 (Histone deacetylase 2): 8.33; AUC [4]: 6.77 µM·h; Cmax [5]: 700 nM; half-life [6]: 192 min; clearance [7]: 11 mL/min/kg; bioavailability [8]: 20.6% |
| CCC(=O)CCCCC[C@H](NC(=O)[C@H]1CC12CCOCC2)c1ncc(-c2cc3ccccc3nc2OC)[nH]1 | 6.63 | 5.75 |  |
| CCC(=O)CCCCC[C@H](NC(=O)[C@H]1CC12CCN(C(C)C)CC2)c1ncc(-c2cc3ccccc3nc2OC)o1 | 6.79 | 6.51 | pIC50 (Histone deacetylase 1): 8.46 |

Continued by rising pEC50 [1], values first:

| pEC50 [1] | pEC50 [2] | Compound | also measured |
| --- | --- | --- | --- |
| 6.81 | 6.05 | CCCN1CCC2(CC1)C[C@@H]2C(=O)N[C@@H](CCCCCC(=O)CC)c1ncc(-c2cc3ccccc3nc2OC)[nH]1 |  |
| 6.89 | 6.09 | CCC(=O)CCCCC[C@H](NC(=O)CC1CC2(C1)CN(C)C2)c1ncc(-c2cc3ccccc3nc2OC)[nH]1 | pIC50 (Histone deacetylase 1): 9.00 |
| 6.89 | 6.08 | CCC(=O)CCCCC[C@H](NC(=O)C1CC2(C1)CN(C)C2)c1ncc(-c2cc3ccccc3nc2OC)[nH]1 |  |
| 6.90 | 6.03 | CCC(=O)CCCCC[C@H](NC(=O)C1=NOC2(CCN(C)CC2)C1)c1ncc(-c2cc3ccccc3nc2OC)[nH]1 | pIC50 (Histone deacetylase 2): 8.28 |
| 6.95 | 6.74 | CCC(=O)CCCCC[C@H](NC(=O)[C@H]1CC12CCN(Cc1ccc(OC)cc1)CC2)c1ncc(-c2cc3ccccc3nc2OC)[nH]1 |  |
| 6.95 | 6.14 | CCC(=O)CCCCC[C@H](NC(=O)[C@H]1CC12CCN(CC(F)(F)F)CC2)c1ncc(-c2cc3ccccc3nc2OC)[nH]1 |  |
| 6.95 | 6.82 | CCC(=O)CCCCC[C@H](NC(=O)[C@H]1CC12CCN(CC)CC2)c1ncc(-c2cc3ccccc3nc2OC)o1 | AUC [4]: 14 µM·h; Cmax [5]: 1430 nM; half-life [6]: 516 min; clearance [7]: 15 mL/min/kg; bioavailability [8]: 68.9% |
| 6.96 | 6.32 | CCC(=O)CCCCC[C@H](NC(=O)C1CN(C)C1)c1ncc(-c2cc3ccccc3nc2OC)[nH]1 |  |
| 7.07 | 6.16 | CCC(=O)CCCCC[C@H](NC(=O)C1CCC2(CC1)CN(C)C2)c1ncc(-c2cc3ccccc3nc2OC)[nH]1 |  |
| 7.09 | 6.49 | CCC(=O)CCCCC[C@H](NC(=O)[C@H]1CC12CCCN(C)C2)c1ncc(-c2cc3ccccc3nc2OC)[nH]1 (some centres undefined) |  |
| 7.11 | 6.46 | CCC(=O)CCCCC[C@H](NC(=O)[C@H]1CC12CCN(CCC(F)(F)F)CC2)c1ncc(-c2cc3ccccc3nc2OC)[nH]1 |  |
| 7.13 | 6.54 | CCC(=O)CCCCC[C@H](NC(=O)[C@@H]1CC12CN(C)C2)c1ncc(-c2cc3ccccc3nc2OC)[nH]1 |  |
| 7.13 | 6.76 | CCC(=O)CCCCC[C@H](NC(=O)[C@H]1CC12CCN(Cc1ccccc1)CC2)c1ncc(-c2cc3ccccc3nc2OC)[nH]1 |  |
| 7.14 | 6.49 | CCC(=O)CCCCC[C@H](NC(=O)[C@H]1C[C@@]12CCN(C)C2)c1ncc(-c2cc3ccccc3nc2OC)[nH]1 |  |
| 7.14 | 6.63 | CCC(=O)CCCCC[C@H](NC(=O)[C@H]1C[C@]12CCN(C)C2)c1ncc(-c2cc3ccccc3nc2OC)[nH]1 |  |
| 7.21 | 6.56 | CCC(=O)CCCCC[C@H](NC(=O)[C@H]1CC12CCN(Cc1cccnc1)CC2)c1ncc(-c2cc3ccccc3nc2OC)[nH]1 |  |
| 7.37 | 6.96 | CCC(=O)CCCCC[C@H](NC(=O)[C@H]1CCC12CCN(CC)CC2)c1ncc(-c2cc3ccccc3nc2OC)[nH]1 |  |
| 7.44 | 7.22 | CCC(=O)CCCCC[C@H](NC(=O)[C@H]1CC12CCC(N(C)C)CC2)c1ncc(-c2cc3ccccc3nc2OC)[nH]1 (some centres undefined) | pIC50 [3]: 6.44; pIC50 (Histone deacetylase 8): 7.12 |
| 7.49 | 7.24 | CCC(=O)CCCCC[C@H](NC(=O)[C@H]1CC12CCN(C(C)C)CC2)c1ncc(-c2cc3ccccc3nc2OC)[nH]1 |  |
| 7.59 | 7.08 | CCC(=O)CCCCC[C@H](NC(=O)[C@H]1CC12CCN(C)CC2)c1ncc(-c2cc3ccccc3nc2OC)[nH]1 | pIC50 [3]: 6.80; AUC [4]: 2.1 µM·h; Cmax [5]: 630 nM; half-life [6]: 396 min; clearance [7]: 22 mL/min/kg; bioavailability [8]: 13%; AUC [9]: 1.8 µM·h; Cmax [10]: 690 nM; half-life [11]: 432 min; clearance [12]: 8.5 mL/min/kg; bioavailability [13]: 22.4% |
| 7.82 | 7.52 | CCC(=O)CCCCC[C@H](NC(=O)[C@H]1CC12CCN(CC1CC1)CC2)c1ncc(-c2cc3ccccc3nc2OC)[nH]1 |  |
